From ChEMBL document CHEMBL1135508, “Synthesis, SAR, and biological evaluation of oximino-piperidino-piperidine amides. 1. Orally bioavailable CCR5 receptor antagonists with potent anti-HIV activity” (J Med Chem, 2002)

Tests used:
Rattus norvegicus = assay: Area under curve value at 0-6 hr in rat pharmacokinetic screening after 10 mg/kg peroral dose; type: ADME, organism-based; design: time < 6 hr, dose 10 mg/kg, route oral; details: in vivo, po
U-87 MG = assay: Concentration required to inhibit the entry of HIV-1 reporter virus (ADA) into U-87 cells by 50%; type: functional, cell-based, U-87MG ATCC
[1] = biological target: T1, Muscarinic acetylcholine receptor M2 (Homo sapiens, UniProt P08172); assay: Inhibitory activity against Muscarinic acetylcholine receptor M2
T1 sequence (P08172 whole entry): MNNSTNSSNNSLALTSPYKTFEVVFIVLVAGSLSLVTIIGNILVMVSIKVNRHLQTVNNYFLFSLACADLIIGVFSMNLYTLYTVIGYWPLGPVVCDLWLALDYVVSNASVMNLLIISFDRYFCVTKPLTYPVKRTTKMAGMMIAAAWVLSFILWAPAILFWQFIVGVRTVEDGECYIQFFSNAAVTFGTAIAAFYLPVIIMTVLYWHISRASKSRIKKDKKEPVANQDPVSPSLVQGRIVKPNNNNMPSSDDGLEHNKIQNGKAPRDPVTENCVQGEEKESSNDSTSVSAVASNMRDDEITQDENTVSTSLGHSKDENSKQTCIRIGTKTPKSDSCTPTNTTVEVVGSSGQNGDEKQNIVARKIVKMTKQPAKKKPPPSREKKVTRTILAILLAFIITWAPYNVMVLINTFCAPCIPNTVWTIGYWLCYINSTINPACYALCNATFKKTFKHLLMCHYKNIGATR

[2] = Plasma clearance after IV administration at the dose 10/10 (IV/Po/mg/kg); type: ADME, organism-based; details: 10 mg/kg
[3] = Percent of bioavailability after oral administration at the dose 10/10 (IV/Po/mg/kg); type: ADME, organism-based; details: in vivo, 10 mg/kg, read-out: Bioavailabiility
[4] = C max after oral administration at the dose 10/10 (IV/Po/mg/kg); type: ADME, organism-based; details: in vivo, 10 mg/kg
[5] = Plasma clearance after IV administration at the dose 2/2 (IV/Po/mg/kg); type: ADME, organism-based; details: cercopithecidae, 2 mg/kg
[6] = Percent of Absorption after IV administration at the dose 2/2 (IV/Po/mg/kg); type: ADME, organism-based; details: cercopithecidae, in vivo, 2 mg/kg, read-out: Absorption
[7] = Percent of Absorption after IV administration at the dose 10/10 (IV/Po/mg/kg); type: ADME, organism-based; details: in vivo, 10 mg/kg, read-out: Absorption
[8] = T max after oral administration at the dose 2/2 (IV/Po/mg/kg); type: ADME, organism-based; details: cercopithecidae, in vivo, 2 mg/kg
[9] = C max after oral administration at the dose 2/2 (IV/Po/mg/kg); type: ADME, organism-based; details: cercopithecidae, in vivo, 2 mg/kg
[10] = Half life (t 1/2) after IV administration at the dose 10/10 (IV/Po/mg/kg); type: ADME, organism-based; details: in vivo, 10 mg/kg
[11] = Half life (t 1/2) after IV administration at the dose 2/2 (IV/Po/mg/kg); type: ADME, organism-based; details: cercopithecidae, in vivo, 2 mg/kg
[12] = Percent of bioavailability after oral administration at the dose 2/2 (IV/Po/mg/kg); type: ADME, organism-based; details: cercopithecidae, in vivo, 2 mg/kg, read-out: Bioavailabiility
[13] = T max after oral administration at the dose 10/10 (IV/Po/mg/kg); type: ADME, organism-based; details: in vivo, 10 mg/kg

AUC (Rattus norvegicus) | IC50 (U-87 MG; Homo sapiens, U-87 MG) | SMILES | further results
620 ng·h/mL | 0.6 nM | CO/N=C(\c1ccc(Br)cc1)C1CCN(C2(C)CCN(C(=O)c3c(N)cccc3Cl)CC2)CC1 | 
2100 ng·h/mL | 0.2 nM | CCO/N=C(\c1ccc(Br)cc1)C1CCN(C2(C)CCN(C(=O)c3c(C)ccnc3C)CC2)CC1 | 
2400 ng·h/mL | 5.6 nM | CO/N=C(\c1ccc(Br)cc1)C1CCN(C2(C)CCN(C(=O)c3c(C)cc[n+]([O-])c3C)CC2)CC1 | 
 | 12 nM | Cc1cccc(C)c1C(=O)N1CCC(C)(N2CCC(C(=O)c3ccc(Br)cc3)CC2)CC1 | 
40 ng·h/mL | 10 nM | Cc1cccc(C)c1C(=O)N1CCC(C)(N2CCC(Cc3ccc(Br)cc3)CC2)CC1 | Ki [1]: 1320 nM
 | 23 nM | Cc1cccc(C)c1C(=O)N1CCC(C)(N2CCC(Cc3ccc(Cl)cc3)CC2)CC1 | 
 | 26 nM | COc1ccc(CC2CCN(C3(C)CCN(C(=O)c4c(C)cccc4C)CC3)CC2)cc1 | 
 | 9 nM | Cc1cccc(C)c1C(=O)N1CCC(C)(N2CCC(Cc3ccc(I)cc3)CC2)CC1 | 
 | 10 nM | Cc1cccc(C)c1C(=O)N1CCC(C)(N2CCC(/C(=N/O)c3ccc(Br)cc3)CC2)CC1 | 
2200 ng·h/mL | 1.3 nM | CCO/N=C(\c1ccc(C(F)(F)F)cc1)C1CCN(C2(C)CCN(C(=O)c3c(C)cc[n+]([O-])c3C)CC2)CC1 | 
0 ng·h/mL |  | CCO/N=C(\c1ccc(S(C)(=O)=O)cc1)C1CCN(C2(C)CCN(C(=O)c3c(C)cc[n+]([O-])c3C)CC2)CC1 | 
3000 ng·h/mL | 4 nM | CO/N=C(\c1ccc(Br)cc1)C1CCN(C2(C)CCN(C(=O)c3c(C)cccc3O)CC2)CC1 | 
 | 4.4 nM | CNC(=O)CO/N=C(\c1ccc(Br)cc1)C1CCN(C2(C)CCN(C(=O)c3c(C)cccc3C)CC2)CC1 | 
3300 ng·h/mL | 5.1 nM | CO/N=C(\c1ccc(OC(F)(F)F)cc1)C1CCN(C2(C)CCN(C(=O)c3c(C)cc[n+]([O-])c3C)CC2)CC1 | 
 | 7 nM | Cc1cccc(C)c1C(=O)N1CCC(C)(N2CCC(Cc3ccc(S(C)(=O)=O)cc3)CC2)CC1 | 
 | 1 nM | Cc1cccc(C)c1C(=O)N1CCC(C)(N2CCC(Cc3ccc(C(F)(F)F)cc3)CC2)CC1 | 
590 ng·h/mL | 1 nM | C=C(c1ccc(Br)cc1)C1CCN(C2(C)CCN(C(=O)c3c(C)cccc3C)CC2)CC1 | 
1700 ng·h/mL | 1.7 nM | Cc1cccc(C)c1C(=O)N1CCC(C)(N2CCC(/C(=N/OC(C)C)c3ccc(Br)cc3)CC2)CC1 | 
 |  | COc1ccc(S(=O)(=O)c2ccc(CC3CCN(C4CCN(C(=O)c5ccc(F)c6ccccc56)CC4)CC3)cc2)cc1 | Ki [1]: 1.3 nM
1300 ng·h/mL | 0.5 nM | CO/N=C(\c1ccc(Br)cc1)C1CCN(C2(C)CCN(C(=O)c3c(C)cccc3N)CC2)CC1 | 
 | 1300 nM | Cc1cccc(C)c1C(=O)N1CCC(C)(N2CCC(Cc3ccccc3Br)CC2)CC1 | 

AUC (Rattus norvegicus) | IC50 (U-87 MG; Homo sapiens, U-87 MG) | SMILES | further results
 | 6.4 nM | CCO/N=C(\c1ccc(Br)cc1)C1CCN(C2(C)CCN(C(=O)c3c(C)cc(C)nc3O)CC2)CC1 | 
210 ng·h/mL | 0.9 nM | CCO/N=C(\c1ccc(Br)cc1)C1CCN(C2(C)CCN(C(=O)c3c(C)cc(O)nc3C)CC2)CC1 | 
 | 38 nM | Cc1ccc(CC2CCN(C3(C)CCN(C(=O)c4c(C)cccc4C)CC3)CC2)cc1 | 
 | 41 nM | Cc1cccc(C)c1C(=O)N1CCC(C)(N2CCC(Cc3cccc(Br)c3)CC2)CC1 | 
1200 ng·h/mL | 2.8 nM | CO/N=C(/c1ccc(Br)cc1)C1CCN(C2(C)CCN(C(=O)c3c(C)cccc3C)CC2)CC1 | 
 | 5 nM | Cc1cccc(C)c1C(=O)N1CCC(C)(N2CCC(Cc3ccc(OC(F)(F)F)cc3)CC2)CC1 | 
3200 ng·h/mL | 1.7 nM | CCO/N=C(\c1ccc(Br)cc1)C1CCN(C2(C)CCN(C(=O)c3c(C)ccc[n+]3[O-])CC2)CC1 | 
3000 ng·h/mL | 1.8 nM | CCO/N=C(\c1ccc(OC(F)(F)F)cc1)C1CCN(C2(C)CCN(C(=O)c3c(C)cc[n+]([O-])c3C)CC2)CC1 | 
350 ng·h/mL | 1.1 nM | CO/N=C(\c1ccc(C(F)(F)F)cc1)C1CCN(C2(C)CCN(C(=O)c3c(C)cc[n+]([O-])c3C)CC2)CC1 | 
2700 ng·h/mL | 2.1 nM | CCO/N=C(\c1ccc(Br)cc1)C1CCN(C2(C)CCN(C(=O)c3c(F)cccc3C(F)(F)F)CC2)CC1 | 
1900 ng·h/mL | 0.5 nM | CO/N=C(\c1ccc(Br)cc1)C1CCN(C2(C)CCN(C(=O)c3c(C)ccnc3C)CC2)CC1 | 
 | 76 nM | Cc1cccc(C)c1C(=O)N1CCC(C)(N2CCC(C(O)c3ccc(Br)cc3)CC2)CC1 (stereo unspecified) | 
1000 ng·h/mL | 1.1 nM | CCO/N=C(\c1ccc(Br)cc1)C1CCN(C2(C)CCN(C(=O)c3c(C)cccc3C)CC2)CC1 | 
 | 9.2 nM | CCO/N=C(/c1ccc(Br)cc1)C1CCN(C2(C)CCN(C(=O)c3c(C)cccc3C)CC2)CC1 | 
 | 5.7 nM | Cc1cccc(C)c1C(=O)N1CCC(C)(N2CCC(/C(=N/OC(C)(C)C)c3ccc(Br)cc3)CC2)CC1 | 
1700 ng·h/mL | 1.4 nM | CCO/N=C(\c1ccc(Cl)cc1)C1CCN(C2(C)CCN(C(=O)c3c(C)cc[n+]([O-])c3C)CC2)CC1 | 
 | 1.4 nM | CCO/N=C(\c1ccc(Br)cc1)C1CCN(C2(C)CCN(C(=O)c3cccnc3C)CC2)CC1 | 
2100 ng·h/mL |  | CO/N=C(\c1ccc(Br)cc1)C1CCN(C2(C)CCN(C(=O)c3c(C)cccc3C)CC2)CC1 (stereo in doubt) | IC50 (U-87 MG; u-87mg atcc): 1.4 nM
1400 ng·h/mL | 1.2 nM | CO/N=C(\c1ccc(Br)cc1)C1CCN(C2(C)CCN(C(=O)c3c(C)cccc3C)CC2)CC1 (stereo in doubt; 14c (Z)) | 
6500 ng·h/mL | 0.6 nM | CCO/N=C(\c1ccc(Br)cc1)C1CCN(C2(C)CCN(C(=O)c3c(C)cc[n+]([O-])c3C)CC2)CC1 [ANCRIVIROC] | clearance [2]: 12.8 mL/min/kg; bioavailability [3]: 63%; Cmax [4]: 2500 nM; clearance [5]: 4.28 mL/min/kg; Fa [6]: 80%; Fa [7]: 57%; Tmax [8]: 2 h; Cmax [9]: 760 nM; half-life [10]: 5.4 h; half-life [11]: 6 h; bioavailability [12]: 52%; Tmax [13]: 0.5 h
